The assay in a line: viability loss in HEK293T cells – cell-based, WST-1 absorbance, serum-free and serum medium, cytotoxicity control for LYPLA1/LYPLA2 inhibitor project, dose response (AID 651991). The conditions noted are these: 48 h. For orientation: Tetrazolium dyes change colour on reduction, which living cells bring about.

The structures appear in SMILES notation. Activity calls are given as the source filed them.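 The calls were made as follows: active = CC50 at or below 10 µM in either panel, but not in both panels; inactive = the rest.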 Some results are limits rather than exact numbers.

As usually defined, the CC50 is the concentration that lowers cell viability or growth by half. `O=C(c1cc2c(s1)-c1ccccc1S(=O)(=O)C2)N1CCN(c2ccc(Cl)cc2)CC1`: the CC50 runs as follows: (with 10% FCS) > 50 µM (inactive); (without serum) > 50 µM (inactive).

As for `O=C(CN1CCN(C(=O)c2ccco2)CC1)Nc1cc(Cl)ccc1Cl`, the CC50 (with 10% FCS) is > 50 µM (inactive) and the CC50 (without serum) was > 50 µM (inactive).

On to `O=C(CN1CCN(C(=O)c2ccco2)CC1)Nc1cc(C(F)(F)F)ccc1Cl`, for which the CC50 was > 50 µM (inactive) (with 10% FCS) and > 50 µM (inactive) (without serum).

Regarding `COc1ccc(N2CCN(C(=O)c3cc4c(s3)-c3ccccc3S(=O)(=O)C4)CC2)cc1`, the CC50 was > 50 µM (inactive) (with 10% FCS) and > 50 µM (inactive) (without serum).

(Values after PubChem BioAssay AID651991 (The Scripps Research Institute Molecular Screening Center, 2013).)
